Data set [1] concerns the target T1, SARS-CoV-2 3CL^pro (Severe acute respiratory syndrome coronavirus 2, UniProt P0DTD1). The settings on record: cited from earlier work.
In data set [2] the target is SARS-CoV 3CL^pro (Severe acute respiratory syndrome coronavirus, UniProt P0C6X7). In words: biochemical.
In data set [3] the target is MERS-CoV 3CL^pro (Middle East respiratory syndrome-related coronavirus, UniProt K9N7C7). In words: biochemical.
Data set [4] deals with SARS-CoV-2-S pseudovirus. Description: microbe, parasite or virus in culture. Format: cell-based. The settings on record: for IC50: Pseudovirus, read-out: IC50, pseudovirus activity inhibition.
For data set [5], the target named is T2, CTSB (Homo sapiens, UniProt P07858).
T2 construct: purchased SinoBiological, Beijing, China
In words: Host protease selectivity test, Cathepsin B. The settings on record: 5 and 50 μM. Format: biochemical. How it is done: Target selectivity tests toward host proteases were conducted based on our previous method. Cathepsin B (CTSB) (SinoBiological, Beijing, China) at a final concentration of 100 nM was prepared in buffer with 20 mM sodium acetate, 1 mM EDTA, and 2 mM DTT (pH 5.5) and incubated for 30 min at 30 °C. Next, the working solution of CTSB was diluted into 500 pM with the reaction buffer (100 mM MES pH 6.0, 1 mM EDTA, 2 mM DTT, and 0.01% Tween-20) and kept for 30 min. Then, the FRET substrate Z-Phe-Arg-AMC (NJPeptide, Nanjing, China) at 5 μM was added to activate the enzymatic reaction. The fluorescence signals were measured using a Cytation 5 plate reader (BioTek, Winooski, VT, USA) at 360 nm (excitation)/460 nm (emission) for 20 min.

The target in data set [6] is T3, CTSL (Homo sapiens, UniProt P07711).
T3 construct: purchased SinoBiological, Beijing, China
T3 sequence (P07711 114-333): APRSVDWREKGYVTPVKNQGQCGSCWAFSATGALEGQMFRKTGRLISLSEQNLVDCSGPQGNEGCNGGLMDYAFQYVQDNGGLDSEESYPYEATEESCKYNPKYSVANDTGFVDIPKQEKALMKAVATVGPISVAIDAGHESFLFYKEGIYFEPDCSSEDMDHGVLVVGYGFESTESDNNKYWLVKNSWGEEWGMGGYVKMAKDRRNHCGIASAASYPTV
Description: Host protease selectivity test, Cathepsin L. The format is biochemical. The settings on record: 5 and 50 μM. How it is done:
Cathepsin L (CTSL) (SinoBiological, Beijing, China) at a final concentration of 100 nM in buffer (20 mM sodium acetate, 1 mM EDTA, and 5 mM DTT, pH 5.5) was activated by incubation at 30 °C. Then, the working solution of CTSL was diluted into 300 pM with the reaction buffer and incubated for 30 min. The addition of 5 μM FRET substrate Z-Phe-Arg-AMC (NJPeptide, Nanjing, China) initiated the reaction. The fluorescence signals at 360 nm (excitation)/460 nm (emission) were measured for 20 min with the Cytation 5 plate reader (BioTek, Winooski, VT, USA).

For data set [7], the target named is T4, CTRC (Homo sapiens, UniProt Q99895).
T4 construct: purchased Novoprotein, Suzhou, China
T4 sequence (Q99895 30-268): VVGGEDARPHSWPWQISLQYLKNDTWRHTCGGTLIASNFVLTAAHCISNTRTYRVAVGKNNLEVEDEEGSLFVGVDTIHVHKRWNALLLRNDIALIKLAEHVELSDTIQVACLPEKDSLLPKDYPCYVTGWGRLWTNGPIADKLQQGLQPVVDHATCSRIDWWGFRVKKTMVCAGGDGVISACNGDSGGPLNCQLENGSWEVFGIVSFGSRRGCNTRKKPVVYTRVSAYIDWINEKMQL
In words: Host protease selectivity test, Chymotrypsin. The format is biochemical. The settings on record: 5 and 50 μM. How it is done:
Chymotrypsin (CTRC) (Novoprotein, Suzhou, China) at a final concentration of 5 μg/mL was incubated in a buffer solution containing 50 mM Tris, 10 mM CaCl2, and 150 mM NaCl at pH 7.5 for a period of 30 min. Subsequently, trypsin was added to the mixture at the same concentration (5 μg/mL) and incubated for an additional 60 min at 37 °C. Following this, the reaction was initiated by adding 100 µM of the Succinyl-Ala-Ala-Pro-Phe-p-nitroanilide substrate (NJPeptide, Nanjing, China), and the mixture was incubated for another 60 min at 37 °C. Finally, the activity of CTRC was quantified by measuring the absorbance at 405 nm using a Cytation 5 plate reader (BioTek, Winooski, VT, USA).

Data set [8] addresses T5, TMPRSS2 (Homo sapiens, UniProt O15393).
T5 construct: purchased MedChemExpress, Shanghai, China
Description: Host protease selectivity test, TMPRSS2. Format: biochemical. How it is done: TMPRSS2 protease at the concentration of 5 nM (MedChemExpress, Shanghai, China) was incubated with compounds in the reaction buffer (50 mM Tris-HCl, 1 mM CaCl2, 0.1% Tween 20, pH 8.0) for 1 h at 37 °C. Then, 45 μM substrate Boc-GIn-Ala-Arg-AMC (NJPeptide, Nanjing, China) was added to initiate the reaction. Fluorescence intensity was detected using a Cytation 5 plate reader at 380 nm (excitation)/460 nm (emission) for 1.5 h.

Data set [9] is described as follows: in vitro. The settings on record: human.
A short description of data set [10]: Cell viability assay (CCK-8) on Vero-E6 cells. The settings on record: African green monkey.
Data set [11] concerns the target T1, SARS-CoV-2 3CL^pro. In words: biochemical.
Data set [12] deals with T1, SARS-CoV-2 3CL^pro. Format: biochemical.
In data set [13] the test system is SARS-CoV-2-S pseudovirus Omicron. Description: microbe, parasite or virus in culture. The format is cell-based.
In data set [14] the test system is SARS-CoV-2-S pseudovirus Delta. In words: microbe, parasite or virus in culture. The format is cell-based.
The subject of data set [15] is SARS-CoV-2-S pseudovirus Gamma. Description: microbe, parasite or virus in culture. Format: cell-based.
The target of data set [16] is SARS-CoV-2 S-RBD/ACE2 interaction (Severe acute respiratory syndrome coronavirus 2, UniProt P0DTC2). The format is cell-based.
The target of data set [17] is human ACE2 (Homo sapiens, UniProt Q9BYF1). Description: SPR binding to immobilized ACE2. How it is done:
ACE2 and S-RBD were separately immobilized onto a CM5 chip via amine coupling in sodium acetate buffer (pH 4.0 for ACE2 and pH 5.5 for S-RBD) at a flow rate of 10 μL/min. After the chip surface was activated with NHS and EDC, ACE2 and S-RBD were injected at concentrations of 20 μg/mL and 30 μg/mL, respectively, and the surface was blocked using ethanolamine. […] All measurements were performed in PBS buffer (0.05% Tween-20, 5% DMSO, pH 7.4) at 25 °C, with corrections applied to address refractive index shifts and data drift. The binding affinities were quantified by fitting the interaction data to a Langmuir 1:1 binding model using Biacore Evaluation software.

Data set [18] deals with SARS-CoV-2 S-RBD (Severe acute respiratory syndrome coronavirus 2, UniProt P0DTC2). In words: biochemical. Format: binding.
Data set [19] deals with T1, SARS-CoV-2 3CL^pro.
On the set-up of data set [20]: method as in doi:10.1177/009286150103500134. The settings on record: cited from earlier work.
Data set [21] concerns the target T1, SARS-CoV-2 3CL^pro. The settings on record: cited from earlier work. This is another data set of the same source.

Structures are written as SMILES. Structures can show the parent of a compound that is named as a salt. Where two headings read alike, the source gives them in different places.

Sequence of human ACE2 (Q9BYF1 18-805): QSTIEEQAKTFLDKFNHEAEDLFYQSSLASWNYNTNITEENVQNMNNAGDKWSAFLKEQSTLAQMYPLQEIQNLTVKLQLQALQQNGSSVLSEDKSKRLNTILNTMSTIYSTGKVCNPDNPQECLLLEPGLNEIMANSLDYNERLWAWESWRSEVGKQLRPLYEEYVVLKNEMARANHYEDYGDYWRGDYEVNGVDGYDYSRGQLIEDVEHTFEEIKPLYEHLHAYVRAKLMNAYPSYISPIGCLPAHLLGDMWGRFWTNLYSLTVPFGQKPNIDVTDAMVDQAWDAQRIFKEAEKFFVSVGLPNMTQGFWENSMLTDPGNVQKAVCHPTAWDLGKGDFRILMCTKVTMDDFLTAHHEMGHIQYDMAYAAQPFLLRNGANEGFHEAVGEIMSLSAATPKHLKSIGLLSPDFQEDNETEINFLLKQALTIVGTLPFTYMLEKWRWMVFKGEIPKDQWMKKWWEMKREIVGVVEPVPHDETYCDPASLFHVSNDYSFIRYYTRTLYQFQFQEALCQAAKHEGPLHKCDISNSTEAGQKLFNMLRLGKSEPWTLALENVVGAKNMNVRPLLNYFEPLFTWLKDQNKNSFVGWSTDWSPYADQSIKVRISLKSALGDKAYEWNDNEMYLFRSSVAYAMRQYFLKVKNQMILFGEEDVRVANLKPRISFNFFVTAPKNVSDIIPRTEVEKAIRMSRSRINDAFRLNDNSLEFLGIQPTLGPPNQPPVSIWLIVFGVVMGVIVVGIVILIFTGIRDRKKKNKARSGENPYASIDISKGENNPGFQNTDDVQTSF
T5 sequence (O15393 whole entry): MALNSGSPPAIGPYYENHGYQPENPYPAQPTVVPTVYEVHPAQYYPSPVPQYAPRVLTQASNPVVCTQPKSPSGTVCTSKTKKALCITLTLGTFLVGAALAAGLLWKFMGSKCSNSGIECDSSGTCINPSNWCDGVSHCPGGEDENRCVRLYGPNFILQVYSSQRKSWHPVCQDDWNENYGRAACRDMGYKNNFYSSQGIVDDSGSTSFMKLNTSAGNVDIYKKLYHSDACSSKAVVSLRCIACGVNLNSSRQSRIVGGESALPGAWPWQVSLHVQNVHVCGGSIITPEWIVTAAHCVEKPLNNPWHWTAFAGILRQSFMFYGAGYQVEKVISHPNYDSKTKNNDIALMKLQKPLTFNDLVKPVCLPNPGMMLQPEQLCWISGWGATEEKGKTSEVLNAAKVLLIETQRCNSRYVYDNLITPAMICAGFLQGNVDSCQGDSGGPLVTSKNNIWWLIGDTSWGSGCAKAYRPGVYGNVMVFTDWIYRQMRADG
Sequence of MERS-CoV 3CL^pro (K9N7C7 3248-3553 limits assumed): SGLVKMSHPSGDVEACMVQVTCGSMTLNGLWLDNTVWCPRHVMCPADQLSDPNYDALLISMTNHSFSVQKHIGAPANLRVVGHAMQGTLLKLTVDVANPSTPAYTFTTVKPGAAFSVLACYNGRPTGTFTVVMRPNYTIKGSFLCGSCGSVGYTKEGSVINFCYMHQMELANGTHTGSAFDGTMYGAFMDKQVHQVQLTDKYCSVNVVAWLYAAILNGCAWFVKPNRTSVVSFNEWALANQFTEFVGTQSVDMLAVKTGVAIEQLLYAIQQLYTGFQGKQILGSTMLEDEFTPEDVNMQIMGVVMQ

For the compound `O=c1cc(-c2ccc(O)cc2)oc2cc(O)cc(O)c12` [Apigenin], the IC50 in data set [1] was 84.9 µM.
For the compound `NC(CO)C(=O)NNCc1ccc(O)c(O)c1O` (centres unmarked) [Benserazide hydrochloride], the IC50 is 3.04 ± 0.4 µM in data set [2], 8.81 ± 0.34 µM in data set [3] and above 200 µM in data set [4]. In [4], the “inhibition of pseudovirus entry into host cells” value is recorded as “lacked the capacity to inhibit pseudovirus entry into host cells”. Besides, in data set [5], the “inhibition of CTSB” value is recorded as “neither compound significantly inhibited”. Besides, the “inhibition of CTSL” value in data set [6] is given as “neither compound significantly inhibited”. For the same compound, in data set [7], the “inhibitory activity against CTRC” value is on record as “did not”. In addition, the “inhibition of TMPRSS2” value in data set [8] is given as “neither compound significantly inhibited”. Moreover, the CC50 in data set [9] was above 200 µM. The compound further displayed a CC50 at 24 h in data set [10] above 100 µM.
`Oc1cc(O)c2c(c1)O[C@H](c1ccc(O)c(O)c1)[C@H](O)C2` [Epicatechin] had an IC50 in data set [11] of 3.3 µM.
As for `O=C(c1cc(O)c(O)c(O)c1)c1ccc(O)c(O)c1O` [Exifone], in data set [11] (read-out: inhibition of SARS-CoV-2 3CLpro activity), the inhibition at 5 µM is above 50%. For the same compound, the type of inhibition result in data set [12] was “non-competitive inhibition with an allosteric mechanism”. The IC50 in [2] was 3.36 ± 0.08 µM; in [3] it was 13.9 ± 0.38 µM; in [4], 76.5 ± 32.6 µM; in data set [13], 55.1 ± 6.15 µM; in data set [14], 150 ± 5.06 µM; in data set [15], 159 ± 4.95 µM. Besides, in data set [16], the “S-RBD binding signal on Vero-E6 cells” value is listed as “marked reduction in the S-RBD binding signal”. Besides, the values for the Kd in data set [17] and in [18] were 1.93 µM and 0.818 µM, respectively. Further, in data set [17] (SPR, immobilized ACE2), the kd was 0.00045 s⁻¹. Further, the “inhibition of CTSB” value in data set [5] is recorded as “neither compound significantly inhibited”. Besides, the “inhibition of CTSL” value in data set [6] is recorded as “neither compound significantly inhibited”. In addition, the “inhibitory activity against CTRC” value in data set [7] is reported as “significant inhibitory activity”. Also, the “inhibition of TMPRSS2” value in data set [8] was “neither compound significantly inhibited”. Also, the TDI effect entry in data set [19] is recorded as “did not exhibit a significant TDI effect”. Moreover, in data set [20], the “reason for withdrawal from the market” value is recorded as “hepatotoxicity”. Further, in data set [9], the CC50 was above 200 µM. For the same compound, the CC50 at 24 h in [10] (Vero-E6 cells) is above 100 µM.
For the compound `O=C(/C=C/c1ccc(O)cc1)c1ccc(O)cc1O` [Isoliquiritigenin], in data set [11], the IC50 worked out at 73.9 µM.
Compound `COc1cc(-c2oc3cc(O)cc(O)c3c(=O)c2O[C@@H]2O[C@H](CO[C@@H]3O[C@@H](C)[C@H](O)[C@@H](O)[C@H]3O)[C@@H](O)[C@H](O)[C@H]2O)cc(O)c1O` [Laricitrin 3-rutinoside] showed an IC50 in data set [11] of 3.82 µM.
Turning to `COC(=O)[C@@H](Cc1ccc(O)c(O)c1)OC(=O)/C=C/c1ccc(O)c(O)c1` [Methyl rosmarinate], the IC50 in data set [21] was 2.5 µM.
Take `C[C@@H]1O[C@@H](OC[C@H]2O[C@@H](Oc3c(-c4cc(O)c(O)c(O)c4)oc4cc(O)cc(O)c4c3=O)[C@H](O)[C@@H](O)[C@@H]2O)[C@H](O)[C@H](O)[C@H]1O` [Myricetin-3-O-rutinoside]: the concentration for half-maximal inhibition (IC50) in data set [11] worked out at 0.85 µM.
Regarding `C/C=C1/[C@H](O[C@@H]2O[C@H](CO)[C@@H](O)[C@H](O)[C@H]2O)OC=C(C(=O)OC)[C@H]1CC(=O)OCCc1ccc(O)c(O)c1` [Oleuropein], the IC50 in [21] is 3.5 µM.
Turning to `O=c1cc(-c2ccc(O)c(O)c2)oc2cc(O)cc(O)c12` [luteolin], the IC50 in data set [1] is 74.9 µM.

The IC50 is the concentration that gives 50% inhibition. Usually inhibition stands for the drop in the measured response relative to a control, in per cent. What is called Kd is the free concentration of one partner at which half of the binding sites on the other are occupied at equilibrium, for simple one-to-one binding.
